# ChEMBL document CHEMBL5715954, “Silencing c-Myc translation as a therapeutic strategy through targeting PI3Kδ and CK1ε in hematological malignancies” (Blood, 2017)
# What was measured:
# Parameters in all cases: scale not given: the % may be the effect or the level left
# [1] = target: T1, Serine/threonine-protein kinase TBK1 (Homo sapiens) (UniProt Q9UHD2); test: Inhibition of human TBK1 assessed as enzyme activity at 1 uM using myelin basic protein as substrate preincubated for 20 mins followed by [gamma-33P]-ATP addition and measured after 120 mins by radiometric Hot-SpotSM Kinase assay relative to control
# T1 sequence (whole entry): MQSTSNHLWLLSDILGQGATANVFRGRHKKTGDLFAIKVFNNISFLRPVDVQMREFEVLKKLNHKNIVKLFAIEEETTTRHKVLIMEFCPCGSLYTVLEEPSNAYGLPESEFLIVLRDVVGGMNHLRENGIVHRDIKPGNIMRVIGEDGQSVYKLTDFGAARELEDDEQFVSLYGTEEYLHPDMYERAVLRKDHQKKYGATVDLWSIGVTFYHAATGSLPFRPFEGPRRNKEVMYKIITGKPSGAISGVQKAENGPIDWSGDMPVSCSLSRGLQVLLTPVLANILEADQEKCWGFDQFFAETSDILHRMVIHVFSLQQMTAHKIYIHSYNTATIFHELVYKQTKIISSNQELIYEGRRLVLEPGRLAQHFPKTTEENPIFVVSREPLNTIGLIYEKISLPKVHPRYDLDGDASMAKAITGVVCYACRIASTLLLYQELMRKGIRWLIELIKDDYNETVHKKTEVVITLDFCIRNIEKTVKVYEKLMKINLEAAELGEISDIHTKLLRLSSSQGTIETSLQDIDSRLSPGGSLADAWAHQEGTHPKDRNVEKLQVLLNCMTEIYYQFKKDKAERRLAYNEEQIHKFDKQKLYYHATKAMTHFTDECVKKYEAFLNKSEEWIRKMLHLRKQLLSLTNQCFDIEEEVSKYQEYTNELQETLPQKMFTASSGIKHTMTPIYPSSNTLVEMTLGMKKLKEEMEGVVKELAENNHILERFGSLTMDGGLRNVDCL
# [2] = target: T2, Mitogen-activated protein kinase kinase kinase 7 (Homo sapiens) (UniProt O43318); test: Inhibition of human TAK1 assessed as enzyme activity at 1 uM using casein as substrate preincubated for 20 mins followed by [gamma-33P]-ATP addition and measured after 120 mins by radiometric Hot-SpotSM Kinase assay relative to control
# T2 sequence (whole entry): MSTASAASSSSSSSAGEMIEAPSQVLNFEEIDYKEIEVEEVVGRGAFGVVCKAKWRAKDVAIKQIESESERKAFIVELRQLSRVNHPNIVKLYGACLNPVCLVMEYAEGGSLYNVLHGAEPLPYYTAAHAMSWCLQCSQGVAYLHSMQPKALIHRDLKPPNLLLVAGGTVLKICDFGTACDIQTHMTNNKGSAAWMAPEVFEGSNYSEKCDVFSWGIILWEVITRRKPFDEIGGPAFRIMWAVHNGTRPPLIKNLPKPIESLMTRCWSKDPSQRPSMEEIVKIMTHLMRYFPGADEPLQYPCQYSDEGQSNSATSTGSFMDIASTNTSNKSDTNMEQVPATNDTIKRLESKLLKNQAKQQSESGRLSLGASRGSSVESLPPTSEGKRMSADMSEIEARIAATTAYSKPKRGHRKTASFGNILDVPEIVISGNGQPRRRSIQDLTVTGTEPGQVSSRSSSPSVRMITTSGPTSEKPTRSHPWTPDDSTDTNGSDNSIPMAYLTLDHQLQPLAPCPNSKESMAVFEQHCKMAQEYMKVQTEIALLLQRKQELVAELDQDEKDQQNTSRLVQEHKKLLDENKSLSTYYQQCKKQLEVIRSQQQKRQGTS
# [3] = target: T3, Serine/threonine-protein kinase Sgk2 (Homo sapiens) (UniProt Q9HBY8); test: Inhibition of human SGK2 assessed as enzyme activity at 1 uM using KGSGSGRPRTSSFAEG as substrate preincubated for 20 mins followed by [gamma-33P]-ATP addition and measured after 120 mins by radiometric Hot-SpotSM Kinase assay relative to control
# T3 sequence (whole entry): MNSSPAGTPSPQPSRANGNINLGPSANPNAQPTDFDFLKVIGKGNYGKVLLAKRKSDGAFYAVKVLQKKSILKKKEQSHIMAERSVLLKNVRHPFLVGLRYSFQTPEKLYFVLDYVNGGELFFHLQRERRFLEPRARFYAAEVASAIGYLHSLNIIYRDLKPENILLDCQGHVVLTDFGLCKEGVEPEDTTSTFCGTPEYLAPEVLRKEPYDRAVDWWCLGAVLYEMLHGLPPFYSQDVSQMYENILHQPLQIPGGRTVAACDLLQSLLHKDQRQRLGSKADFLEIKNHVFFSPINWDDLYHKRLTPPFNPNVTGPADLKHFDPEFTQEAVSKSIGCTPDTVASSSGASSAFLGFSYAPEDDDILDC
# [4] = target: Serine/threonine-protein kinase 38-like (Homo sapiens) (UniProt Q9Y2H1); test: Inhibition of human STK38L assessed as enzyme activity at 1 uM using KKRNRRLSVA as substrate preincubated for 20 mins followed by [gamma-33P]-ATP addition and measured after 120 mins by radiometric Hot-SpotSM Kinase assay relative to control
# Chain of Serine/threonine-protein kinase 38-like (Homo sapiens) (Q9Y2H1 2-464 limits assumed): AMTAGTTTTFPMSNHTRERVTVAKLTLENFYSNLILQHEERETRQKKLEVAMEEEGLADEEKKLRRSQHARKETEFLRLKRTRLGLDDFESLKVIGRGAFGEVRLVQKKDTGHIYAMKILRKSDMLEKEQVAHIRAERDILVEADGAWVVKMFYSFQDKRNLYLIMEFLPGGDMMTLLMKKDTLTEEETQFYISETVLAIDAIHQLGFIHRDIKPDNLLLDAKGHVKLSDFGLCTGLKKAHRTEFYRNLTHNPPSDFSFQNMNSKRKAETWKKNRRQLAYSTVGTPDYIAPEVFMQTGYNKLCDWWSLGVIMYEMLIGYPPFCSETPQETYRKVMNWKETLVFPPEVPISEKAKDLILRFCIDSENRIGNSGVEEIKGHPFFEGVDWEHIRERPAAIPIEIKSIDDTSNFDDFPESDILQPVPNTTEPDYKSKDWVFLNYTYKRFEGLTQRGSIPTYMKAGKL
SMILES,Activity [1] [%],Activity [2] [%],Activity [3] [%],Activity [4] [%]
CC[C@H](Nc1ncnc2[nH]cnc12)c1nc2cccc(F)c2c(=O)n1-c1ccccc1,89.6,102,91.9,95.1
C[C@H](Nc1ncnc2nc[nH]c12)c1cc2cccc(Cl)c2c(=O)n1-c1ccccc1,94.4,98.7,98.8,92.7
CC(C)Oc1ccc(-c2nn([C@@H](C)c3oc4ccc(F)cc4c(=O)c3-c3cccc(F)c3)c3ncnc(N)c23)cc1F [UMBRALISIB],93.9,99,90.9,100
